Columns and labels:
[1] = test system: Leptosphaeria nodorum; experiment: Activity against wheat leafspot (LN); assay type: in vivo; settings: direct therapeutic foliar spray, 600 ppm, 6-8 days
Summary of the method: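 Wheat cv Norman at single-leaf stage spray-inoculated with 1.5×10^6 conidia/ml, held 24 h at high humidity, then sprayed therapeutically with test compound at 600 ppm. Kept 6-8 days at 22° C, 70% humidity; lesion density per leaf rated against untreated or diluent-sprayed controls.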

[2] = test system: Alternaria solani; experiment: Activity against tomato early blight (AS); assay type: in vivo; settings: Table VI; tomato seedlings, contact prophylactic foliar spray, 4 days
Summary of the method: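 Foliar contact prophylactic spray on tomato seedlings (cv Outdoor Girl, second true leaf expanded) in acetone/water 50:50 with 0.04% Tween 20; 24 h at 20° C, 40% R.H., then inoculation with 10^4 spores/ml A. solani conidia. Kept moist at 21° C; lesion cover rated 4 days post-inoculation against untreated or diluent-sprayed controls.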

[3] = test system: Erysiphe graminis f.sp. hordei; experiment: Direct protectant activity against barley powdery mildew (EGP); assay type: in vivo; settings: direct protectant foliar spray, 8 days
Summary of the method: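 Barley seedlings (cv Golden Promise, single-leaf stage) were foliar-sprayed, held 24 h at 18 °C/40% RH, then dusted with mildew conidia. After 8 days at 18 °C/40% RH, sporulating leaf area was scored as a rating against untreated or diluent-sprayed controls.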

[4] = test system: Plasmopara viticola; experiment: Antisporulant activity against vine downy mildew (PVA); assay type: in vivo; settings: vine leaves, antisporulant foliar spray, 600 ppm, 750 l/ha
Summary of the method: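 Cabernet Sauvignon vines (~8 cm) inoculated on lower leaf surfaces with 5×10^4 zoosporangia/ml, held 24 h at 21° C high humidity then 24 h glasshouse. Infected leaves sprayed underside with 600 ppm compound in 1:1 water/acetone, 0.04% Tween 20, 750 l/ha; 96 h glasshouse, 24 h humidity. Sporulating leaf area rated versus control.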

[5] = test system: Erysiphe graminis f.sp. hordei; experiment: Activity against barley powdery mildew, direct therapeutic (EGT); assay type: in vivo; settings: direct therapeutic foliar spray, 600 ppm, up to 7 days
Summary of the method: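 Barley seedlings (cv. Golden Promise, single-leaf stage) were dusted with mildew conidia one day before a therapeutic foliar spray of 600 ppm compound. Plants were kept at 18 °C and 40% humidity for up to 7 days, and sporulating leaf area was rated against untreated or diluent-sprayed controls.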

[6] = test system: Rhizoctonia solani; experiment: Activity against Rhizoctonia in-vitro (RSI); assay type: cell-based; settings: 10 ppm, 10 days, 20° C., mycelial growth
Summary of the method: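 R. solani mycelial fragments (5×10^4/ml) in half-strength Potato Dextrose Broth with compound added from acetone to 10 ppm final. Mycelial growth assessed after 10 days at 20° C, rated against untreated or diluent control.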

[7] = test system: Pseudocercosporella herpotrichoides; experiment: Activity against wheat eyespot in-vitro (PHI); assay type: cell-based; settings: 10 ppm, 10 days, 20° C., mycelial growth
Summary of the method: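 P. herpotrichoides mycelial fragments (5×10^4/ml) grown in half-strength PDB with compound at 10 ppm final, added from acetone. Incubated 10 days at 20 °C; mycelial growth rated against untreated or diluent controls.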

[8] = test system: Venturia inaequalis; experiment: Activity against apple scab in-vitro (VII); assay type: cell-based; settings: 10 ppm, 10 days, 20° C., mycelial growth
Summary of the method: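 Compound in acetone was tested at 10 ppm final in half-strength Potato Dextrose Broth inoculated with V. inaequalis mycelial fragments and spores at 5×10^4 propagules/ml. After 10 days at 20° C, mycelial growth was rated against untreated or diluent controls.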

[9] = test system: Phytophthora infestans; assay type: in vivo; settings: tomato, direct protectant foliar spray
[10] = test system: Pyricularia oryzae; assay type: in vivo; settings: rice seedlings, direct therapeutic foliar spray, 600 ppm, 4-5 days
[11] = test system: Botrytis cinerea; experiment: Direct protectant activity against broad bean grey mould (BCB); assay type: in vivo; settings: direct protectant foliar spray, 600 ppm, 4 days
Summary of the method: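 Broad bean plants (cv The Sutton, two leaf pairs) sprayed on upper leaf surfaces at 600 ppm, then inoculated 24 h later with 10^6 conidia/ml. Kept 4 days at 22 °C, high humidity; disease control rated from % leaf area with lesions against untreated or diluent controls.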

Structure (SMILES) | disease control rating LN [1] | disease control rating AS [2] | disease control rating EGP [3] | disease control rating PVA [4] | disease control rating EGT [5] | disease control rating RSI [6] | disease control rating PHI [7] | disease control rating VII [8] | disease control rating PIP [9] | disease control rating PO [10] | disease control rating BCB [11]
CCCCCCNC1CC2(CCC(C(C)(C)C)CC2)OC1C (stereo not shown) [Compound 84] | 0 (less than 50% disease control) | 0 (less than 50% disease control) | 2 (greater than 80% disease control) | 0 (less than 50% disease control) | 2 (greater than 80% disease control) | 1 (about 50-80% disease control) | 0 (less than 50% disease control) | 1 (about 50-80% disease control) | 2 (greater than 80% disease control) | 0 (less than 50% disease control) | 0 (less than 50% disease control)
CC(C)(C)C1CCC2(CC1)CC(NC1CC3CCC1C3)CO2 (stereo not shown) [Compound 85] | 0 (less than 50% disease control) | 0 (less than 50% disease control) | 2 (greater than 80% disease control) | 0 (less than 50% disease control) | 2 (greater than 80% disease control) | 0 (less than 50% disease control) | 0 (less than 50% disease control) | 1 (about 50-80% disease control) | 2 (greater than 80% disease control) | 0 (less than 50% disease control) | 2 (greater than 80% disease control)
CC(C)(C)C1CCC2(CC1)CC(NC1C3CC4CC(C3)CC1C4)CO2 (stereo not shown) [Compound 86] | 0 (less than 50% disease control) | 2 (greater than 80% disease control) | 2 (greater than 80% disease control) | 0 (less than 50% disease control) | 2 (greater than 80% disease control) | 0 (less than 50% disease control) | 0 (less than 50% disease control) | 1 (about 50-80% disease control) | 2 (greater than 80% disease control) | 0 (less than 50% disease control) | 0 (less than 50% disease control)
CC1CCCCC1NC1COC2(CCC(C(C)(C)C)CC2)C1 (stereo not shown) [Compound 87] | 0 (less than 50% disease control) | 0 (less than 50% disease control) | 2 (greater than 80% disease control) | 0 (less than 50% disease control) | 2 (greater than 80% disease control) | 1 (about 50-80% disease control) | 0 (less than 50% disease control) | 1 (about 50-80% disease control) | 2 (greater than 80% disease control) | 0 (less than 50% disease control) | 0 (less than 50% disease control)
CC1CCCC(NC2COC3(CCC(C(C)(C)C)CC3)C2)C1 (stereo not shown) [Compound 88] | 0 (less than 50% disease control) | 0 (less than 50% disease control) | 2 (greater than 80% disease control) | 0 (less than 50% disease control) | 2 (greater than 80% disease control) | 1 (about 50-80% disease control) | 0 (less than 50% disease control) | 1 (about 50-80% disease control) | 2 (greater than 80% disease control) | 0 (less than 50% disease control) | 2 (greater than 80% disease control)
CC1CCC(NC2COC3(CCC(C(C)(C)C)CC3)C2)CC1 (stereo not shown) [Compound 89] | 1 (about 50-80% disease control) | 0 (less than 50% disease control) | 2 (greater than 80% disease control) | 1 (about 50-80% disease control) | 2 (greater than 80% disease control) | 1 (about 50-80% disease control) | 0 (less than 50% disease control) | 0 (less than 50% disease control) | 0 (less than 50% disease control) | 0 (less than 50% disease control) | 0 (less than 50% disease control)
CC(C)(C)C1CCC2(CC1)CC(NC1CCC(O)CC1)CO2 (stereo not shown) [Compound 90] | 0 (less than 50% disease control) | 0 (less than 50% disease control) | 2 (greater than 80% disease control) | 0 (less than 50% disease control) | 2 (greater than 80% disease control) | 0 (less than 50% disease control) | 0 (less than 50% disease control) | 0 (less than 50% disease control) | 2 (greater than 80% disease control) | 0 (less than 50% disease control) | 2 (greater than 80% disease control)
CN(CC1CCCCC1)C1COC2(CCC(C(C)(C)C)CC2)C1 (stereo not shown) [Compound 91] | 1 (about 50-80% disease control) | 0 (less than 50% disease control) | 2 (greater than 80% disease control) | 0 (less than 50% disease control) | 2 (greater than 80% disease control) | 0 (less than 50% disease control) | 2 (greater than 80% disease control) | 0 (less than 50% disease control) | 2 (greater than 80% disease control) | 0 (less than 50% disease control) | 1 (about 50-80% disease control)

From patent publication US5591741A, “Fungicidal spiroheterocyclic derivatives” (American Cyanamid Company, priority 1993, dated 1997)
